The target of assay [1] is nuclear BRD4-NUT foci in HCC2494 NUT midline carcinoma cells (Homo sapiens (Human), UniProt O60885+Q86Y26). Kind of assay: Nut-foci formation assay. Format: cell-based. As to conditions: 24 hours, read-out: HCS Brd4-NUT IC50. An outline of the steps: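 Read-out is number and intensity of nuclear NUT foci by immunofluorescence imaging, relative to 0.1% DMSO set as 100. Compounds were tested as 3-fold series starting at 10 μM on HCC2494 NUT midline carcinoma cells for 24 h. Four-parameter fitting gave IC50.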

The next assay deals with His-Brd2(60-472) (Homo sapiens (Human), UniProt P25440). Kind of assay: TR-FRET in-vitro binding assay for BRD2. As to conditions: biochemical. An outline of the steps:
(§1)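 Assay buffer HEPES pH 7.5/NaCl/Tween20/BSA; protein solution 45 nM, peptide solution 60 nM acetyl-H4 (AcK5,8,12,16). Incubated 30 °C for 35 min; Eu-anti-His6 and SA-APC detection, TR-FRET read.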

The target in the next assay is His-Brd3(20-477) (Homo sapiens (Human), UniProt Q15059). The assay is described as follows: TR-FRET in-vitro binding assay for BRD3. As to conditions: biochemical. An outline of the steps:
as §1
(TR-FRET usually uses a lanthanide donor and a delayed reading to cut background.)

Molecules are shown by their SMILES.

In patent publication US8975417B2, “Pyrazolopyrrolidine derivatives and their use in the treatment of disease” (Novartis AG, priority 2013, dated 2015) one finds IC50 data, which are given here for 16 compounds.

His-Brd2(60-472), sequence (P25440 60-472): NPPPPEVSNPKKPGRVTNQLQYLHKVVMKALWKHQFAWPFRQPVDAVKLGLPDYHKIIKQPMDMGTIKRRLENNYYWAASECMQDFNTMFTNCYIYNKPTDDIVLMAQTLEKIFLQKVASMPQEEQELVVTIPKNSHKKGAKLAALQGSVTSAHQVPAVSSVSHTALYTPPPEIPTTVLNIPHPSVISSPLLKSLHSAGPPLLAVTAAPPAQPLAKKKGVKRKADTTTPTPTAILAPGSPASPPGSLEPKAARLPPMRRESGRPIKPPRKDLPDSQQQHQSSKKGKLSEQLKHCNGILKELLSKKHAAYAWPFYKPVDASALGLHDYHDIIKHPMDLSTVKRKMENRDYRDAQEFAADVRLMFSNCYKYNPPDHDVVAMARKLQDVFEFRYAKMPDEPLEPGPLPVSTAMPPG
His-Brd3(20-477), sequence (Q15059 20-477): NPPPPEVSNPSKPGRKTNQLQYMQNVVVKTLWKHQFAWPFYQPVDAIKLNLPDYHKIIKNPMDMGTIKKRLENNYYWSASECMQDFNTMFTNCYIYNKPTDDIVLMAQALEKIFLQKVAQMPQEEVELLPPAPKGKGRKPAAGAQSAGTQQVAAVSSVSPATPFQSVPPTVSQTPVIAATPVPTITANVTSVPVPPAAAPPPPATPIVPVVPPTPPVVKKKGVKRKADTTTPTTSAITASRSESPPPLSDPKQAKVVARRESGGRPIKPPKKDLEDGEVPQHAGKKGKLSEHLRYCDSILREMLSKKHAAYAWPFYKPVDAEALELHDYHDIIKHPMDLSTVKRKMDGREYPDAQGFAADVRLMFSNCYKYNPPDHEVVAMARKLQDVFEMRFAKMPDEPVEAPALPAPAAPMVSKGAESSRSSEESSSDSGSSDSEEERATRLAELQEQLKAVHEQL

Turning to `CC(=O)N1CC(n2nc(C)c3c2C(=O)N(c2cc(C)c(=O)n(C)c2)C3c2ccc(Cl)cc2)C1` (stereo not drawn) [Example 153, 1-(1-acetylazetidin-3-yl)-4-(4-chlorophenyl)-5-(1,5-dimethyl-6-oxo-1,6-dihydropyridin-3-yl)-3-methyl-4,5-dihydropyrrolo[3,4-c]pyrazol-6(1H)-one], the IC50 in assay [1] was determined as 150 nM; on His-Brd2(60-472), 160 nM; on His-Brd3(20-477) it was 130 nM.
Take `Cc1cc(N2C(=O)c3nn(C4CC4)c(C)c3C2c2ccc(Cl)cc2)cn2c(C)nnc12` (stereo not drawn) [Example 93, 4-(4-chlorophenyl)-2-cyclopropyl-5-(3,8-dimethyl-[1,2,4]triazolo[4,3-a]pyridin-6-yl)-3-methyl-4,5-dihydropyrrolo[3,4-c]pyrazol-6(2H)-one]: the results for the IC50 (in assay [1]; at His-Brd2(60-472); at His-Brd3(20-477)) were 17.9 nM, 45 nM and 31 nM, respectively.
On the same counts, the results for `CCc1c2c(nn1C(=O)N(C)C)C(=O)N(c1cc(C)c(=O)n(C)c1)C2c1ccc(Cl)cc1` (stereo not drawn) [Example 148, 4-(4-chlorophenyl)-5-(1,5-dimethyl-6-oxo-1,6-dihydropyridin-3-yl)-3-ethyl-N,N-dimethyl-6-oxo-5,6-dihydropyrrolo[3,4-c]pyrazole-2(4H)-carboxamide] are 118 nM, 220 nM and 160 nM.
Take `Cc1cc(N2C(=O)c3c(c(CO)nn3C3CC3)C2c2ccc(Cl)cc2)cn2c(C)nnc12` (stereo not drawn) [Example 131, 4-(4-chlorophenyl)-1-cyclopropyl-5-(3,8-dimethyl-[1,2,4]triazolo[4,3-a]pyridin-6-yl)-3-(hydroxymethyl)-4,5-dihydropyrrolo[3,4-c]pyrazol-6(1H)-one]: the IC50 was 27.7 nM in assay [1], 46 nM on His-Brd2(60-472) and 52 nM at His-Brd3(20-477).
On the same counts, the results for `Cc1cc(N2C(=O)c3c(c(C4CC4)nn3-c3ccnn3C)C2c2ccc(Cl)cc2)cn2c(C)nnc12` (stereo not drawn) [Example 117, 4-(4-chlorophenyl)-3-cyclopropyl-5-(3,8-dimethyl-[1,2,4]triazolo[4,3-a]pyridin-6-yl)-1-(1-methyl-1H-pyrazol-5-yl)-4,5-dihydropyrrolo[3,4-c]pyrazol-6(1H)-one] are 24.3 nM, 34 nM and 38 nM.
For `Cc1cc(N2C(=O)c3nn(C4CNC4)c(C)c3C2c2ccc(Cl)cc2)cn2c(C)nnc12` (stereo not drawn) [Example 152, 2-(azetidin-3-yl)-4-(4-chlorophenyl)-5-(3,8-dimethyl-[1,2,4]triazolo[4,3-a]pyridin-6-yl)-3-methyl-4,5-dihydropyrrolo[3,4-c]pyrazol-6(2H)-one] the same measures were 1350 nM, 100 nM and 110 nM.
For `Cc1nn(-c2ccnn2C)c2c1[C@@H](c1ccc(Cl)cc1)N(c1cc(C)c3nnc(C)n3c1)C2=O` [Example 125, (R)-4-(4-chlorophenyl)-5-(3,8-dimethyl-[1,2,4]triazolo[4,3-a]pyridin-6-yl)-3-methyl-1-(1-methyl-1H-pyrazol-5-yl)-4,5-dihydropyrrolo[3,4-c]pyrazol-6(1H)-one] the same measures were 32.3 nM, 32 nM and 32 nM.
Regarding `Cc1nn(-c2ccnn2C)c2c1[C@H](c1ccc(Cl)cc1)N(c1cc(C)c(=O)n(C)c1)C2=O` [Example 121, (S)-4-(4-chlorophenyl)-5-(1,5-dimethyl-6-oxo-1,6-dihydropyridin-3-yl)-3-methyl-1-(1-methyl-1H-pyrazol-5-yl)-4,5-dihydropyrrolo[3,4-c]pyrazol-6(1H)-one], the IC50 was 6110 nM in assay [1], 5300 nM at His-Brd2(60-472) and 5400 nM at His-Brd3(20-477).
On the same counts, the results for `Cc1nn(C2CC2)c2c1C(c1ccc(Cl)cc1)N(c1cc(C)c3nnn(C)c3n1)C2=O` (stereo not drawn) [Example 110, 4-(4-chlorophenyl)-1-cyclopropyl-5-(3,7-dimethyl-3H-[1,2,3]triazolo[4,5-b]pyridin-5-yl)-3-methyl-4,5-dihydropyrrolo[3,4-c]pyrazol-6(1H)-one] are 6.42 nM, 18 nM and 14 nM.
On the same counts, the results for `Cc1nn(C(C)C)c2c1[C@@H](c1ccc(Cl)cc1)N(c1cc(C)c(=O)n(C)c1)C2=O` [Example 104, (R)-4-(4-chlorophenyl)-5-(1,5-dimethyl-6-oxo-1,6-dihydropyridin-3-yl)-1-isopropyl-3-methyl-4,5-dihydropyrrolo[3,4-c]pyrazol-6(1H)-one] are 11.3 nM, 14 nM and 15 nM.
On the same counts, the results for `CCc1nn(CCOCC(F)(F)F)c2c1C(c1ccc(Cl)cc1)N(c1cc(OC)c3nnc(C)n3c1)C2=O` (stereo not drawn) [Example 108, 4-(4-chlorophenyl)-3-ethyl-5-(8-methoxy-3-methyl-[1,2,4]triazolo[4,3-a]pyridin-6-yl)-1-(2-(2,2,2-trifluoroethoxy)ethyl)-4,5-dihydropyrrolo[3,4-c]pyrazol-6(1H)-one] are 635 nM, 210 nM and 280 nM.
Turning to `Cc1cc(N2C(=O)c3nn(C4CN(C)C4)c(C)c3C2c2ccc(Cl)cc2)cn2c(C)nnc12` (stereo not drawn) [Example 158, 4-(4-chlorophenyl)-5-(3,8-dimethyl-[1,2,4]triazolo[4,3-a]pyridin-6-yl)-3-methyl-2-(1-methylazetidin-3-yl)-4,5-dihydropyrrolo[3,4-c]pyrazol-6(2H)-one], the IC50 in assay [1] was determined as 103 nM; at His-Brd2(60-472), 98 nM; on His-Brd3(20-477), 93 nM.
For `COc1ncccc1-n1nc(C)c2c1C(=O)N(c1cc(C)c3nnn(C)c3n1)C2c1ccc(Cl)cc1` (stereo not drawn) [Example 109, 4-(4-chlorophenyl)-5-(3,7-dimethyl-3H-[1,2,3]triazolo[4,5-b]pyridin-5-yl)-1-(2-methoxypyridin-3-yl)-3-methyl-4,5-dihydropyrrolo[3,4-c]pyrazol-6(1H)-one] the same measures were 43.8 nM, 27 nM and 27 nM.
For `COc1ncc(-n2nc(C)c3c2C(=O)N(c2cc(C)c(=O)n(C)c2)[C@H]3c2ccc(Cl)cc2)c(OC)n1` [Example 99, (S)-4-(4-chlorophenyl)-1-(2,4-dimethoxypyrimidin-5-yl)-5-(1,5-dimethyl-6-oxo-1,6-dihydropyridin-3-yl)-3-methyl-4,5-dihydropyrrolo[3,4-c]pyrazol-6(1H)-one] the same measures were 8860 nM, 6000 nM and 7600 nM.
On the same counts, the results for `CCn1nc2c(c1C)C(c1ccc(Cl)cc1)N(c1cc(C)c3nnc(C)n3c1)C2=O` (stereo not drawn) [Example 115, 4-(4-chlorophenyl)-5-(3,8-dimethyl-[1,2,4]triazolo[4,3-a]pyridin-6-yl)-2-ethyl-3-methyl-4,5-dihydropyrrolo[3,4-c]pyrazol-6(2H)-one] are 39.7 nM, 48 nM and 46 nM.
In the case of `Cc1nn(C2CN(C)C2)c2c1C(c1ccc(Cl)cc1)N(c1cc(C)c(=O)n(C)c1)C2=O` (stereo not drawn) [Example 140, 4-(4-chlorophenyl)-5-(1,5-dimethyl-6-oxo-1,6-dihydropyridin-3-yl)-3-methyl-1-(1-methylazetidin-3-yl)-4,5-dihydropyrrolo[3,4-c]pyrazol-6(1H)-one], the IC50 in assay [1] came out at 435 nM; on His-Brd2(60-472), 420 nM; at His-Brd3(20-477) it was 440 nM.

One may read the IC50 as the concentration at which inhibition is half-maximal.
